Experiments:
[1] = system: S. cerevisiae Strain F45; experiment: Zones of growth inhibition on YPD plates containing 10 mM Enamine compound with 50 μg fluconazole disk; assay type: cell-based, Saccharomyces cerevisiae
Procedure: Zones of Growth Inhibition were Measured for the S. cerevisiae Strain F45 on YPD Plates Containing 10 mM of the Enamine Compound with a 50 μg Fluconazole Disk Applied.
Zones of growth inhibition were also measured for strain F45 in which F45 strains were spread on YPD plates that contained 10 mM of an Enamine compound which was poured into the plate, with a 50 μg fluconazole disk. Enamine is an unsaturated compound derived by the condensation of an aldehyde or ketone with a secondary amine Some enmities have structures that are similar to PE, as such, they were tested to measure their efficacy in increasing sensitivity to an antifungal.

[2] = system: S. cerevisiae biofilm formation; experiment: Biofilm formation (colony morphology); assay type: cell-based, Saccharomyces cerevisiae; conditions: determined by colony morphology; previous experiments
Procedure: In each panel, the left plate is YPD alone and the right plate is YPD plus 10 mM PE (a concentration that inhibits the fluffy colony morphology). Each plate also contains a paper disk containing the DMSO vehicle (FIG. 1, panel A), 25 μg fluconazole (FIG. 1, panel B), 50 μg fluconazole (FIG. 1, panel C), or 100 μg fluconazole (FIG. 1, panel D).
However, previous experiments determined that biofilm formation was inhibited at PE concentrations of 10 mM or higher. Attention is drawn to FIG. 2, in which concentrations of PE that were too low to inhibit biofilm formation (determined by colony morphology) were also shown to increase the sensitivity of the yeast strain flo11D for the fluconazole which further support the hypothesis that the effect of PE on drug sensitivity is independent of its effect on biofilm formation. As such, there is a synergistic effect upon the combination of PE with fluconazole, in which the cells are more sensitive to fluconazole in the presence of PE at a higher concentration (10 mM PE). […] It is noted that even at lower concentrations of PE (<10 mM), in which the colonies are fluffy, indicating an intact cell wall or intact morphology, the PE at lower concentrations can still enhance killing by fluconazole. […] As such, even at a lower concentration, PE in combination with fluconazole has a synergistic effect on inhibiting the growth of the fungal strain.

[3] = system: S. cerevisiae (F45); experiment: YPD plate assay with antifungal filter disk, with or without PE; assay type: cell-based, Saccharomyces cerevisiae; design: Degree of clearance: unit not given here
[4] = system: Candida albicans (resistant=20186.025; 8357); experiment: M.I.C. determination; assay type: cell-based; conditions: drug alone
[5] = system: Candida parapsilosis (ATCC 22019); experiment: M.I.C. determination; assay type: cell-based; conditions: drug alone
[6] = system: Candida albicans (resistant=20186.025; 8357); experiment: Checkerboard assay (FICI) of PE with triazole; assay type: cell-based; conditions: named triazole in combination with PE
[7] = system: Cryptococcus neoformans (ATCC 24067); experiment: Checkerboard assay (FICI) of PE with triazole; assay type: cell-based; conditions: named triazole in combination with PE
[8] = system: Candida glabrata (ATCC 36583); experiment: Checkerboard assay (FICI) of PE with triazole; assay type: cell-based; conditions: named triazole in combination with PE
[9] = system: Aspergillus fumigatus (ATCC 13073); experiment: M.I.C. determination; assay type: cell-based; conditions: drug alone
[10] = system: the fungus; experiment: Effects of antifungals in the presence of PE (FIG. 4); assay type: cell-based; conditions: PE used in conjunction with the antifungal
[11] = system: Candida glabrata (ATCC 36583); experiment: M.I.C. determination; assay type: cell-based; conditions: drug alone
[12] = system: Candida albicans (sensitive=ATCC 90028); experiment: Checkerboard assay (FICI) of PE with triazole; assay type: cell-based; conditions: named triazole in combination with PE
[13] = system: Candida parapsilosis (ATCC 22019); experiment: Checkerboard assay (FICI) of PE with triazole; assay type: cell-based; conditions: named triazole in combination with PE
[14] = system: Candida albicans (sensitive=ATCC 90028); experiment: M.I.C. determination; assay type: cell-based; conditions: drug alone
[15] = system: Cryptococcus neoformans (ATCC 24067); experiment: M.I.C. determination; assay type: cell-based; conditions: drug alone
[16] = system: Candida tropicalis (ATCC 200956); experiment: Checkerboard assay (FICI) of PE with triazole; assay type: cell-based; conditions: named triazole in combination with PE
[17] = system: Candida krusei (ATCC 6258); experiment: Checkerboard assay (FICI) of PE with triazole; assay type: cell-based; conditions: named triazole in combination with PE
[18] = system: Candida tropicalis (ATCC 200956); experiment: M.I.C. determination; assay type: cell-based; conditions: drug alone
[19] = system: Aspergillus fumigatus (ATCC 13073); experiment: Checkerboard assay (FICI) of PE with triazole; assay type: cell-based; conditions: named triazole in combination with PE
[20] = system: Candida krusei (ATCC 6258); experiment: M.I.C. determination; assay type: cell-based; conditions: drug alone
[21] = system: BY4741 lab strain; experiment: YPD plate assay with nystatin disk, with or without PE; assay type: cell-based, Saccharomyces cerevisiae; conditions: FIG. 9 Panel B
Procedure: In each panel, the top plate is YPD alone with a disc that contains DMSO, the bottom left plate is YPD alone with a disc that contains 50 μg Nystatin and the bottom right plate is YPD plus 10 mM PE with a disc that contains 50 μg Nystatin. The plates in FIG. 9, panel A are spread with the F45 strain. The plates in FIG. 9, panel B are spread with the BY4741 lab strain.
In each panel, the top plate is YPD alone with a disc that contains DMSO, the bottom left plate is YPD alone with a disc that contains 50 μg Nystatin and the bottom right plate is YPD plus 10 mM PE with a disc that contains 50 μg Nystatin. The plates in panel are spread with the F45 strain (FIG. 9, panel A), The plates in FIG. 9, panel Bare spread with the BY4741 lab strain.

[22] = system: C. albicans fluconazole resistant strain R357; experiment: YPD plate assay with antifungal filter disk, with or without PE; assay type: cell-based, Candida albicans; design: unit not given here; conditions: C. albicans strain 8357
[23] = 10 mM compound in YPD, 50 μg fluconazole disk, F45

NCCCCOCCc1ccccc1 [I]
Fluconazole Zone Size [1]: no growth | Growth of fungal cells on the plate with fluconazole [1, 23]: loss of growth

OCc1ccccc1 [B]
Fluconazole Zone Size [1]: 11 mm

OCCc1cccc(Cl)c1 [J]
Fluconazole Zone Size [1]: no growth | Growth of fungal cells on the plate with fluconazole [1, 23]: loss of growth

OCCc1ccccc1 [PE, phenyl ethanol]
Fluconazole Zone Size [1]: 27 mm | PE concentration at which biofilm formation was inhibited [2]: ≥ 10 mM | Degree of clearance ([3]; FIG. 6 Panel A, YPD + 10 mM PE, disk with chloroform vehicle only, F45): 0 | Effect of PE on caspofungin sensitivity ([3]; YPD plus 10 mM PE, 200 ng-50 μg caspofungin disk, F45, listed as PP): no effect

C[C@@H](c1ncncc1F)[C@](O)(Cn1cncn1)c1ccc(F)cc1F [Voriconazole]
MIC [4]: >128 µg | MIC [5]: 0.03125 µg | FICI [6]: 0.3 | FICI [7]: 1.1 | FICI [8]: 1.2 | MIC [9]: 0.25 µg | Sensitivity of the fungus to the antifungal in the presence of PE [10]: increased the sensitivity | MIC [11]: 0.5 µg | FICI [12]: 2.1 | FICI [13]: 1.6 | MIC [14]: 0.03125 µg | MIC [15]: 0.0156 µg | FICI [16]: 0.6 | FICI [17]: 1.1 | MIC [18]: 32 µg | FICI [19]: 0.6 | MIC [20]: 0.25 µg

Nc1[nH]c(=O)ncc1F [Flucytosine]
Sensitivity of the fungus to the antifungal in the presence of PE [10]: increased the sensitivity

C[C@H](O)c1cccc(C#N)c1 [D]
Fluconazole Zone Size [1]: 17 mm

CCc1ccc(N)cc1 [F]
Fluconazole Zone Size [1]: inhibition by compound but not fluconazole

CC[C@H](C)C[C@H](C)CCCCCCCCC(=O)N[C@H]1C[C@@H](O)[C@@H](NCCN)NC(=O)[C@@H]2[C@@H](O)CCN2C(=O)[C@H]([C@H](O)CCN)NC(=O)[C@H]([C@H](O)[C@@H](O)c2ccc(O)cc2)NC(=O)[C@@H]2C[C@@H](O)CN2C(=O)[C@H]([C@@H](C)O)NC1=O [Caspofungin]
Degree of clearance ([3]; FIG. 8 Panel A, YPD + 10 mM PE 50 μg Caspofungin (so in the source), F45): 0 | Degree of clearance ([3]; FIG. 8 Panel E, YPD + 10 mM PE + 200 μg Caspofungin, F45): 0

OC1(Cc2ccccc2)CCCC1 [H]
Fluconazole Zone Size [1]: no growth | Growth of fungal cells on the plate with fluconazole [1, 23]: loss of growth

C[C@@H]1[C@H](O)[C@@H](C)/C=C/C=C/CC/C=C/C=C/C=C/C=C/C(O[C@H]2O[C@H](C)[C@@H](O)[C@H](N)[C@@H]2O)CC2O[C@](O)(CC(O)C(O)CCC(O)CC(O)CC(O)CC(=O)O[C@H]1C)CC(O)C2C(=O)O (stereo partly drawn) [Nystatin]
Degree of clearance ([21]; YPD + 50 μg nystatin): 2 | Degree of clearance ([21]; YPD + 10 mM PE + 50 μg nystatin): 2 | Degree of clearance ([3]; FIG. 9 Panel A, Strain F45, YPD + 50 μg nystatin): 2 | Degree of clearance ([3]; FIG. 9 Panel A, Strain F45, YPD + 10 mM PE + 50 μg nystatin): 2

OCCNCCc1ccccc1 [E]
Fluconazole Zone Size [1]: 35 mm | Activity compared with PE [1, 23]: activity greater than PE | Growth of fungal cells on the plate with fluconazole [1, 23]: loss of growth

CO[C@H]1[C@@H](O)[C@H](O)[C@H](OC[C@@]23C[C@@H]4[C@H](C)CC[C@H]4[C@@]4(C=O)CC2C=C(C(C)C)[C@@]34C(=O)O)O[C@@H]1C [Sordarin]
Degree of clearance ([22]; FIG. 13 Panel A, YPD + 1 μg sordarin): 1 | Degree of clearance ([22]; FIG. 13 Panel A, YPD + 1 μg sordarin + 10 mM PE): 2 | Degree of clearance ([22]; FIG. 13 Panel B, YPD + 10 μg sordarin): 2 | Degree of clearance ([22]; FIG. 13 Panel B, YPD + 10 μg sordarin + 10 mM PE): 3 | Degree of clearance ([22]; FIG. 13 Panel C, YPD + 50 μg sordarin): 3 | Degree of clearance ([22]; FIG. 13 Panel C, YPD + 50 μg sordarin + 10 mM PE): 4 | Sensitivity of the fungus to the antifungal in the presence of PE [10]: increased the sensitivity | Degree of clearance ([3]; FIG. 7 Panel A, YPD + 10 mM PE + 50 μg Sordarin, F45): 4 | Degree of clearance ([3]; FIG. 7 Panel A, YPD alone, 50 μg Sordarin disk, F45): 8 | Degree of clearance ([3]; FIG. 7 Panel B, YPD + 10 mM PE + 10 μg Sordarin, F45): 3 | Degree of clearance ([3]; FIG. 7 Panel B, YPD alone, 10 μg Sordarin disk, F45): 2 | Degree of clearance ([3]; FIG. 7 Panel C, YPD + 10 mM PE + 1 μg Sordarin, F45): 2 | Degree of clearance ([3]; FIG. 7 Panel C, YPD alone, 1 μg Sordarin disk, F45): 1 | Degree of clearance ([3]; FIG. 7 Panel D, YPD + 10 mM PE + 500 μg Sordarin, F45): 1 | Degree of clearance ([3]; FIG. 7 Panel D, YPD alone, Sordarin disk (500 ng per legend), F45): 0

OC(Cn1cncn1)(Cn1cncn1)c1ccc(F)cc1F [Fluconazole]
MIC [9]: >128 µg | Sensitivity of the fungus to the antifungal in the presence of PE [10]: increased the sensitivity | MIC [11]: 8 µg | MIC [15]: 0.25 µg | MIC [20]: 32 µg

CC(O)c1cccc(O)c1 (stereo not drawn) [A]
Fluconazole Zone Size [1]: 11 mm

Nc1ccc(CCO)cc1 [Compound C]
Fluconazole Zone Size [1]: 13 mm

CC(C)Cc1ccc(CCCO)cc1 [G]
Fluconazole Zone Size [1]: inhibition by compound but not fluconazole

— patent publication US12280032B2, “Methods and compositions for increasing the potency of antifungal agents” (Pacific Northwest Research Institute, priority 2014, dated 2025)
